# Columns and labels:
# Type in all cases: functional, Homo sapiens
# Design in all cases: dose or concentration left out as unconfirmed
# [1] = system: Colon cancer organoid; assay: Optimized Dual-Glo assay to identify co-culture induced drug vulnerabilities using donated chemical probes and chemogenomics kinase set in O20 CRC organoid and F20 CAF mono and co-culture. […] Cell viability is reported both mono and co-culture models.
# [2] = system: Colon cancer organoid; assay: Optimized Dual-Glo assay to identify co-culture induced drug vulnerabilities using donated chemical probes and chemogenomics kinase set in O14 CRC organoid and F14 CAF mono and co-culture. […] Cell viability is reported both mono and co-culture models.
# [3] = system: Colon cancer organoid; assay: Optimized Dual-Glo assay to identify co-culture induced drug vulnerabilities using donated chemical probes and chemogenomics kinase set in O06 CRC organoid and F06 CAF mono and co-culture. […] Cell viability is reported both mono and co-culture models.
# [4] = Culture type Co-Culture, Transduced with Lucferase2-P2A-EGFP lentivirus
# [5] = Culture type Co-Culture, Transduced with Renilla-dsRed lentivirus
# [6] = Culture type Mono-Culture, Transduced with Lucferase2-P2A-EGFP lentivirus
# [7] = Culture type Mono-Culture, Transduced with Renilla-dsRed lentivirus
SMILES,"Cell Viability [1, 4] [%]","Cell Viability [1, 5] [%]","Cell Viability [1, 6] [%]","Cell Viability [1, 7] [%]","Cell Viability [2, 4] [%]","Cell Viability [2, 5] [%]","Cell Viability [2, 6] [%]","Cell Viability [2, 7] [%]","Cell Viability [3, 4] [%]","Cell Viability [3, 5] [%]","Cell Viability [3, 6] [%]","Cell Viability [3, 7] [%]"
O[C@H]1CC[C@H](Nc2ncc3nc(Nc4c(F)cc(F)cc4F)n([C@H]4CCOC4)c3n2)CC1 [TANZISERTIB],129.23,97.8883,76.6269,101.702,101.857,126.192,105.608,109.828,96.802,109.826,106.51,114.573
COc1cc(Nc2nccc(-c3cnn4nc(OC)ccc34)n2)cc(C(F)(F)F)c1,11.0854,189.711,12.7509,71.1906,8.865,107.014,18.5626,63.2458,25.4978,199.418,18.9413,49.3331
CCC(=O)Nc1cccc(Oc2nc(Nc3ccc(N4CCN(C)CC4)cc3OC)ncc2Cl)c1,125.445,105.023,80.3355,88.9581,114.921,101.654,90.6079,93.4216,92.8013,94.5997,65.5336,70.4946
CCn1cc(-c2ccnc3[nH]c(-c4cccc(CN(C)C)c4)cc23)c(-c2ccc(NC(=O)N(C)C)cc2)n1 [GSK-1070916],9.493,207.056,12.2557,100.034,29.7048,205.838,28.675,102.681,8.589,116.692,3.637,93.7927
O=C(NNS(=O)(=O)c1ccccc1)c1cc(-c2ccnnc2)ccc1F [WM-2474],104.784,126.08,94.4259,109.751,77.1469,98.8333,101.234,91.9977,92.1572,93.3483,72.4696,112.209
C[C@@H]1CC(=O)Nc2cccc(-c3ccc4c(c3)c(-c3cnn(C)c3)nn4C)c2N1,69.0231,148.573,48.9735,106.497,64.6948,192.573,92.2277,159.466,96.7982,166.358,47.1538,205.908
COc1ccccc1-c1cc(N2CCN(C(=O)OC(C)(C)C)CC2)c(N)nn1,122.85,160.936,122.916,117.085,99.785,110.211,110.079,98.4172,99.4085,102.712,83.0998,116.6
CC(=O)Nc1c(C(C)=O)c(=O)n(C)c2nc(-c3ccc(Cl)cc3Cl)c(-c3ccc(Cl)cc3)cc12 [NAPHTHYRIDINONE],105.882,98.6055,84.0394,82.777,70.6421,119.606,87.1663,99.5027,144.905,170.157,100.862,101.001
C[C@H](NC(=O)Nc1cc2[nH]ncc2c(CO)n1)c1ccccn1 [ERKi-NC],108.541,124.126,136.018,90.7734,88.9935,102.074,55.928,92.432,88.473,87.7291,101.937,116.172
C[C@@H](c1cccc(C#N)c1)n1cc(Cl)cc(C(N)=O)c1=N.Cl,64.263,72.4154,105.334,111.16,96.0836,104.787,81.7502,103.626,92.5611,127.503,97.2998,98.9566
CCC(=O)N[C@H]1CC[C@@H](C(=O)N(C)c2ccc(-c3nc4ccccc4o3)cc2)C1 [BI 99179],33.9891,149.12,57.7768,75.3735,36.4327,197.223,76.5692,108.528,7.905,448.988,13.2074,86.3048
COc1cc2c(cc1OCCCN1CCCC1)N=C(N)C21CCC1,75.7779,100.254,68.8586,68.8682,71.4641,82.9559,58.4791,57.8128,84.9948,83.704,86.6673,61.562
CO[C@@H](C)c1c(Nc2ccc([C@@H](N(C)C(=O)C3CCS(=O)(=O)CC3)C(F)(F)F)cc2)cnc2cc(Cl)nn12 [NVS-MALT1-C],83.6241,108.215,61.6775,90.6676,62.8563,80.6398,85.3196,104.147,50.6957,73.6522,67.3669,85.1011
C[C@@H]1CN(c2cc(-c3nn(C)c4ccc(OC5(C)CC5)cc34)ncn2)C[C@H](C)O1 [MLi-2-NC],112.711,86.6644,122.371,89.7102,118.993,72.3586,109.582,102.606,21.8005,254.626,83.2909,98.8275
Cn1cc(-c2ccc3occ(-c4ccccc4-c4ccccc4)c3n2)cn1,88.7548,89.3741,123.78,115.172,101.217,93.8283,119.561,96.0811,137.24,150.558,120.153,121.662
O=C(NOC[C@H](O)CO)c1ccc(F)c(F)c1Nc1ccc(I)cc1F [MIRDAMETINIB],3.888,83.5811,5.164,45.8585,4.141,39.571,2.016,25.7095,8.8965,49.9042,7.213,36.7215
CCN1CCN(c2ccc(Nc3cc(N(C)C(=O)Nc4c(Cl)c(OC)cc(OC)c4Cl)ncn3)cc2)CC1 [INFIGRATINIB],101.104,52.242,73.2403,44.318,13.9667,230.084,45.8266,126.071,0.6967,125.024,12.6822,113.181
CCNC(=O)c1cc2c(N3CCOCC3C)ccnc2[nH]1 (stereo unspecified),144.452,100.256,103.659,101.624,86.1024,100.89,87.7409,81.9796,131.632,146.353,109.161,91.669
